Measured values: ChEMBL document CHEMBL5303304, “EUbOPEN Chemogenomics Library - IncuCyte” (2023)

Experiments:
Format in all cases: toxicity, cell-based
HEK-293T = test: Incucyte cell viability with HEK293T; conditions: human, 10 µM, compound concentration 10 uM
Fibroblast = test: Incucyte cell viability with human fibroblast; conditions: 10 µM, compound concentration 10 uM
U2OS = test: Incucyte cell viability with U2OS; conditions: human, 10 µM, compound concentration 10 uM
Further: unitless GR value; below 1 slowed growth and below 0 cell loss.

Row | SMILES | Growth Rate (HEK-293T; 0 h, replicate number 2) | Growth Rate (Fibroblast; 0 h, replicate number 1) | Growth Rate (Fibroblast; 0 h, replicate number 2) | Growth Rate (Fibroblast; 6 h, replicate number 1) | Growth Rate (U2OS; 0 h, replicate number 1) | Growth Rate (U2OS; 0 h, replicate number 2) | Growth Rate (HEK-293T; 12 h, replicate number 2) | Growth Rate (HEK-293T; 18 h, replicate number 1) | Growth Rate (HEK-293T; 24 h, replicate number 1) | Growth Rate (Fibroblast; 12 h, replicate number 1) | Growth Rate (Fibroblast; 12 h, replicate number 2) | Growth Rate (Fibroblast; 18 h, replicate number 2) | Growth Rate (Fibroblast; 24 h, replicate number 2) | Growth Rate (U2OS; 6 h, replicate number 1) | Growth Rate (U2OS; 12 h, replicate number 1) | Growth Rate (U2OS; 12 h, replicate number 2) | Growth Rate (U2OS; 18 h, replicate number 1) | Growth Rate (U2OS; 18 h, replicate number 2) | Growth Rate (U2OS; 24 h, replicate number 1) | Growth Rate (U2OS; 24 h, replicate number 2) | further results
1 | Cc1ccccc1C1C(=O)N(C)c2cnc(Nc3ccc(S(N)(=O)=O)cc3)nc2N1C (configuration not stated) | -0.88 | -0.58 | -0.9 | -1 | -0.73 | -0.83 |  |  |  |  |  |  |  |  |  |  |  |  |  |  | Growth Rate (HEK-293T; 0 h, replicate number 1): -0.37
2 | CCOC(=O)c1cnn(-c2ccc(NC(=O)C(Cl)=C(Cl)Cl)cc2)c1C(F)(F)F |  |  |  |  | -0.17 | 0.55 | -0.37 | -0.51 | -0.51 | -1 | -0.86 | -0.7 | -0.57 | -0.33 | -0.42 | -0.46 | -0.49 | -0.43 | -0.43 | -0.42 | Growth Rate (HEK-293T; 6 h, replicate number 1): -0.63; Growth Rate (HEK-293T; 6 h, replicate number 2): -0.52; Growth Rate (HEK-293T; 12 h, replicate number 1): -0.5; Growth Rate (HEK-293T; 18 h, replicate number 2): -0.25; Growth Rate (HEK-293T; 24 h, replicate number 2): -0.13; Growth Rate (Fibroblast; 6 h, replicate number 2): -1; Growth Rate (U2OS; 6 h, replicate number 2): 0.04
3 | CNC(=O)c1c(F)cccc1Nc1nc(Nc2cc3c(cc2OC)CCN3C(=O)CN(C)C)nc2[nH]ccc12 | 0.35 | -0.92 |  | 0.23 | -0.99 | -1 | 0.75 |  |  | 0.04 | -0.65 | -0.62 | -0.6 |  | 0.02 | 0.29 | -0.42 | -0.11 | -0.45 | -0.14 | Growth Rate (HEK-293T; 0 h, replicate number 1): -1; Growth Rate (HEK-293T; 18 h, replicate number 2): -0.03; Growth Rate (HEK-293T; 24 h, replicate number 2): -0.14; Growth Rate (Fibroblast; 6 h, replicate number 2): -0.71; Growth Rate (Fibroblast; 18 h, replicate number 1): -0.23; Growth Rate (Fibroblast; 24 h, replicate number 1): -0.23
4 | Cc1c(N2CCCC2)nc2ccc(Br)cc2c1C(=O)NC[C@H](CCC(=O)O)c1ccccc1Cl.Cl.O | -0.18 | -1 | -0.4 | 0.4 |  | -0.04 |  |  |  |  | 0.93 |  |  | 0.65 | 0.97 |  | 0.93 | 0.99 | 0.91 | 0.92 | Growth Rate (HEK-293T; 0 h, replicate number 1): 0.22
5 | O=C1CN(c2ccccc2F)C(NCCN2CCOCC2)=C1c1nc2cc(Br)ccc2c(=O)[nH]1 |  |  | -0.37 |  | 0.24 |  | 1 | 0.53 | 0.74 |  |  |  |  | 0.56 | 0.85 | 0.96 | 1 |  | 0.89 | 0.96 | Growth Rate (HEK-293T; 6 h, replicate number 1): 0.22; Growth Rate (HEK-293T; 6 h, replicate number 2): 0.74; Growth Rate (HEK-293T; 12 h, replicate number 1): 0.49; Growth Rate (HEK-293T; 24 h, replicate number 2): 0.88
6 | Cn1cc(-c2ccc(-c3cncc(Cl)c3N3CCC4(CCNC4=O)CC3)cc2)cn1 | 0.95 |  | -0.3 | 0.61 |  | 0.82 | 0.63 | 0.34 | 0.5 | 0.75 |  | 0.87 | 0.8 | 0.58 | 0.59 |  | 0.96 |  |  |  | Growth Rate (HEK-293T; 6 h, replicate number 1): 0.13; Growth Rate (HEK-293T; 6 h, replicate number 2): 0.24; Growth Rate (HEK-293T; 12 h, replicate number 1): 0.3; Growth Rate (HEK-293T; 18 h, replicate number 2): 0.67; Growth Rate (HEK-293T; 24 h, replicate number 2): 0.67; Growth Rate (Fibroblast; 18 h, replicate number 1): 0.56; Growth Rate (Fibroblast; 24 h, replicate number 1): 0.49
7 | CC(C)NC(=O)[C@H]1CCC[C@H]1Nc1nc(Nc2ccc(CN(C)C)cc2)ncc1Br.Cl | -1 |  |  | -0.53 | -0.38 | 0.74 | -0.36 | -0.04 | 0.2 | -0.42 | -0.59 | -0.51 | -0.46 | 0.07 | -0.31 | 0.15 | 0.3 | 0.24 | 0.32 | 0.2 | Growth Rate (HEK-293T; 6 h, replicate number 1): -0.59; Growth Rate (HEK-293T; 6 h, replicate number 2): -0.5; Growth Rate (HEK-293T; 12 h, replicate number 1): -0.3; Growth Rate (HEK-293T; 18 h, replicate number 2): -0.19; Growth Rate (HEK-293T; 24 h, replicate number 2): 0.01; Growth Rate (Fibroblast; 6 h, replicate number 2): -0.82; Growth Rate (Fibroblast; 18 h, replicate number 1): -0.37; Growth Rate (Fibroblast; 24 h, replicate number 1): -0.38; Growth Rate (U2OS; 6 h, replicate number 2): 0.17
8 | CN1CC(=O)N(C)c2cnc(Nc3ccc(NC(=O)Nc4cccc(C(=O)O)c4)cc3)nc21 |  | -1 | -0.25 |  | -0.94 | 0.52 |  | 0.83 | 0.72 |  | 0.81 | 0.99 |  | 0.82 | 0.91 | 0.75 | 0.89 | 0.97 | 0.95 | 1 | Growth Rate (HEK-293T; 0 h, replicate number 1): -1; Growth Rate (U2OS; 6 h, replicate number 2): 0.73
9 | Cn1cc(NC(=O)c2ccc3nc4n(c3c2)CCCNC4=O)nc1C(=O)NC1CCCC1 | 0.71 | 0.88 | 0.62 |  | 0.36 |  | 0.88 | 0.64 | 0.81 | 0.67 | 0.76 | 0.78 | 0.92 |  | 0.82 | 0.97 | 0.95 | 0.99 | 0.91 |  | Growth Rate (HEK-293T; 6 h, replicate number 2): 0.99; Growth Rate (HEK-293T; 12 h, replicate number 1): 0.69; Growth Rate (HEK-293T; 18 h, replicate number 2): 0.85; Growth Rate (HEK-293T; 24 h, replicate number 2): 0.9; Growth Rate (Fibroblast; 6 h, replicate number 2): 0.57; Growth Rate (Fibroblast; 18 h, replicate number 1): 0.91; Growth Rate (Fibroblast; 24 h, replicate number 1): 0.79
10 | C[C@H]1CN(C2COC2)CCN1c1ccc(Nc2cc(-c3ccnc(N4CCn5c(cc6c5CC(C)(C)C6)C4=O)c3CO)cn(C)c2=O)nc1 [FENEBRUTINIB] |  | -1 | -0.77 | 0.44 |  |  |  |  |  |  | 0.46 | 0.94 |  | 0.53 | 0.69 | 0.99 |  | 0.98 | 0.81 | 1 | Growth Rate (HEK-293T; 6 h, replicate number 1): 0.81; Growth Rate (HEK-293T; 6 h, replicate number 2): 0.76
11 | CC(C)(c1ccc(OCc2cccc(COc3ccc(C(=N)N)cc3)c2)cc1)c1ccc(O[C@@H]2O[C@H](C(=O)O)[C@@H](O)[C@H](O)[C@H]2O)cc1.O=C(O)C(F)(F)F | -0.08 | -1 |  | 0.34 | 0.36 | -0.17 |  | 0.87 | 1 |  |  |  | 0.92 | 0.61 | 0.97 | 0.68 | -0.41 | 0.89 |  |  | Growth Rate (HEK-293T; 0 h, replicate number 1): 0.51; Growth Rate (Fibroblast; 24 h, replicate number 1): 0.88; Growth Rate (U2OS; 6 h, replicate number 2): 0.56
12 | CN(C)C/C=C/C(=O)Nc1ccc(C(=O)Nc2cccc(Nc3ncc(Cl)c(-c4c[nH]c5ccccc45)n3)c2)cc1 | -0.53 |  |  |  | -1 |  |  |  |  |  |  |  | 0.7 |  |  | 0.57 | 0.29 | 0.55 | 0.16 | 0.28 | 
13 | CC1(C)CCC(CN2CCN(c3ccc(C(=O)NS(=O)(=O)c4ccc(NCC5CCOCC5)c([N+](=O)[O-])c4)c(Oc4cnc5[nH]ccc5c4)c3)CC2)=C(c2ccc(Cl)cc2)C1 [VENETOCLAX] | 0.6 |  | -0.85 | 0.5 | 0.58 | -0.65 |  | 0.66 | 0.87 | 0.87 |  |  |  | 0.5 | 0.81 | 0.51 | 0.78 | 0.89 | 0.81 | 0.93 | Growth Rate (HEK-293T; 6 h, replicate number 1): 0.01; Growth Rate (HEK-293T; 12 h, replicate number 1): 0.58; Growth Rate (U2OS; 6 h, replicate number 2): 0.98
14 | CCCc1c(OCCCOc2ccc(OCC(=O)O)cc2)ccc(C(C)=O)c1O | -0.76 |  | -0.08 | 0.58 |  |  | 0.94 |  |  | 0.74 | 0.87 |  |  | 0.97 | 0.84 |  |  |  |  |  | Growth Rate (HEK-293T; 18 h, replicate number 2): 0.97; Growth Rate (Fibroblast; 18 h, replicate number 1): 0.6; Growth Rate (Fibroblast; 24 h, replicate number 1): 0.94
15 | COc1cc(-c2cn(C)c(=O)c3cnccc23)c(OC)cc1CN(C)C |  |  |  | 0.79 | 0.29 |  | 0.4 | 0.77 | 0.68 | 0.84 | 0.23 | 0.53 | 0.5 | 0.38 | 0.8 |  |  |  | 0.97 |  | Growth Rate (HEK-293T; 0 h, replicate number 1): 0.44; Growth Rate (HEK-293T; 6 h, replicate number 2): 0.24; Growth Rate (HEK-293T; 18 h, replicate number 2): 0.68; Growth Rate (HEK-293T; 24 h, replicate number 2): 0.77; Growth Rate (Fibroblast; 6 h, replicate number 2): 0.69; Growth Rate (Fibroblast; 18 h, replicate number 1): 0.8; Growth Rate (Fibroblast; 24 h, replicate number 1): 0.8
